Three compounds from BindingDB's records for doi:10.1021/ml1001536 (2010) can be followed below.

pIC50: −log10 of the molar value.

The nature of the assay: Antagonist activity at CCR5 in IL-10 stimulated human PBMC cells assessed as MIP-1beta induced chemotaxis.
On to `CO[C@@H]1Cc2cc(C(F)(F)F)ccc2[C@H]1N1CCN(C2(C)CCN(C(=O)c3c(C)ncnc3C)CC2)C[C@@H]1C` [5-[(4-(3S)-4-[(1R,2R)-2-methoxy-5-(trifluoromethyl)-2,3-dihydro-1H-inden-1-yl]-3-methylpiperazin-1-yl-4-methylpiperidin-1-yl)carbonyl]-4,6-dimethylpyrimidine], for which the pIC50 is 8.46. Consider `Cc1ncnc(C)c1C(=O)N1CCC(C)(N2CCN(C3CCc4cc(C(F)(F)F)ccc43)[C@@H](C)C2)CC1` (stereo partly drawn) [4,6-Dimethyl-5-[(4-methyl-4-{(3S)-3-methyl-4-[5-(trifluoromethyl)-2,3-dihydro-1H-inden-1-yl]piperazin-1-yl}piperidin-1-yl)carbonyl]pyrimidine], for which the pIC50 was 8.92. The result for `Cc1ncnc(C)c1C(=O)N1CCC(C)(N2CCN(C3CCc4cc(Br)ccc43)[C@@H](C)C2)CC1` (stereo partly drawn) [5-({4-[(3S)-4-(5-Bromo-2,3-dihydro-1H-inden-1-yl)-3-methylpiperazin-1-yl]-4-methylpiperidin-1-yl}carbonyl)-4,6-dimethylpyrimidine] reads 8.96.
